We go through three compounds from publication PMC6222843, “Reversal Effect of Oxypeucedanin on P-glycoprotein-mediated Drug Transport” (Molecules : A Journal of Synthetic Chemistry and Natural …, 2018).

The nature of data set [1]: Plasma pharmacokinetics of DTX in rats with or without OPD (LC-MS/MS). Particulars: male, Sprague-Dawley, rat, po, 50 mg/kg.
Experimental: Ten 8-week-old male Sprague-Dawley rats were randomly divided into the following two groups (5 rats in each group). Group 1: rats were administered a single oral dose of 50 mg/kg of DTX dissolved in 0.5% CMC-Na. […] Blood samples were centrifuged for 10 min at approximately 4000 rpm. 100 µL of plasma was collected from the upper layer, and mixed with 20 µL of taxol internal standard solution for 30 s followed by 500 µL of methanol for 3 min, then centrifuged at 15,000 rpm for 10 min. The supernatant was separated and collected. 5 μL of the supernatant was injected into the LC-MS/MS system for detection and quantification.
Separation was performed on a ZORBAX Extend-C18 (2.1 × 100 mm, 3.5 µm, Agilent, Palo Alto, CA, USA). The column oven was maintained at 25 °C.
In data set [2] the test system is MDCK-MDR1 cells. Put plainly: MTT assay, viability of MDCK-MDR1 cells. Type of data set: cell-based, canine. The protocol: The effects of OPD and VCR on the viability of MDCK-MDR1 cells were observed by a MTT assay.
MDCK-MDR1 Cells were obtained from Shanghai Zhongya Institute of Biological Genes Institute (CinoAsia Co., Ltd., Shanghai, China). Cells were cultured as previously described. In brief, cells were cultured in high glucose DMEM medium supplemented with 10% fetal bovine serum (FBS), 1% non-essential amino acids, 1% L-glutamine, and a penicillin-streptomycin double antibiotic solution. Cells were incubated at 37 °C with 5% CO2 and cell medium was changed every other day.

Data set [3] has as its system P-gp. The experiment in a line: Western blotting of P-gp protein expression in MDCK-MDR1 cells. In kind it is cell-based, canine. Particulars: OPD 17.5 and 70 μmol/L for 48 h, in comparison with control group. The protocol: MDCK-MDR1 cells treated with different concentrations of OPD (3.5, 17.5 and 70 μmol/L) for 48 h were subject to western blotting for determination of P-gp protein level. Cells were washed 3 times with PBS. Total protein was extracted and the protein concentrations were measured according to the manufacturer’s instructions. Cell protein were denatured at 70 °C for 10 min. Protein samples with equivalent amounts were loaded and separated by 10% SDS-polyacrylamide gel electrophoresis and transferred to a polyvinylidene difluoride membranes. Membranes were blocked in 5% powdered non-fat milk solution for 4 h at room temperature and incubated with anti-P-gp primary antibody (GADPH was used as a loading control) overnight at 4 °C followed by an goat anti-mouse IgG secondary antibody (1:5000 dilutions) for 4 h at room temperature. Membranes were incubated with an ECL chromogenic solution for 4 min in the dark. The target protein bands were detected and protein intensity was calculated by a gel imaging system (Beta 3, Bio-Rad, Irvine, CA, USA).

Data set [4] concerns MDR1. The experiment in a line: RT-qPCR of MDR1 mRNA expression in MDCK-MDR1 cells. Type of data set: cell-based, human. Particulars: OPD 3.5, 17.5 and 70 μmol/L for 48 h, compared to untreated cells. How it is done:
MDCK-MDR1 cells were cultured for 5 days and treated with different concentrations of OPD (3.5, 17.5 and 70 μmol/L) for 48 h to measure MDR1 gene expression level. The total celluar RNA was extracted by the RNA easy Total RNA mini kit and reverse transcribed to cDNA with reverse transcription kit according to the manufacturer’s protocol. PCR primer design and synthesis were performed by the primer design software provided by Applied Biosystems. Primer sequences for MDR1 and hRpIPIv-F (loading internal control) genes are as follows: human hRpIP1v-F forward, 5′-[…]-3′; human hRpIP1v-F reverse, 5′-[…]-3′; human MDR1 forward, 5′-[…]-3′, human MDR1 reverse, 5′-[…]-3′. PCR amplification was performed using Power SYBR Green PCR Mix according to the manufacturer’s protocol (Life Technologies, Carlsbad, CA, USA).

In data set [5] the target is recombinant human P-gp membranes (Homo sapiens, UniProt P08183). Particulars: compared to basal P-gp ATPase activity.
Sequence of recombinant human P-gp membranes (P08183 whole entry): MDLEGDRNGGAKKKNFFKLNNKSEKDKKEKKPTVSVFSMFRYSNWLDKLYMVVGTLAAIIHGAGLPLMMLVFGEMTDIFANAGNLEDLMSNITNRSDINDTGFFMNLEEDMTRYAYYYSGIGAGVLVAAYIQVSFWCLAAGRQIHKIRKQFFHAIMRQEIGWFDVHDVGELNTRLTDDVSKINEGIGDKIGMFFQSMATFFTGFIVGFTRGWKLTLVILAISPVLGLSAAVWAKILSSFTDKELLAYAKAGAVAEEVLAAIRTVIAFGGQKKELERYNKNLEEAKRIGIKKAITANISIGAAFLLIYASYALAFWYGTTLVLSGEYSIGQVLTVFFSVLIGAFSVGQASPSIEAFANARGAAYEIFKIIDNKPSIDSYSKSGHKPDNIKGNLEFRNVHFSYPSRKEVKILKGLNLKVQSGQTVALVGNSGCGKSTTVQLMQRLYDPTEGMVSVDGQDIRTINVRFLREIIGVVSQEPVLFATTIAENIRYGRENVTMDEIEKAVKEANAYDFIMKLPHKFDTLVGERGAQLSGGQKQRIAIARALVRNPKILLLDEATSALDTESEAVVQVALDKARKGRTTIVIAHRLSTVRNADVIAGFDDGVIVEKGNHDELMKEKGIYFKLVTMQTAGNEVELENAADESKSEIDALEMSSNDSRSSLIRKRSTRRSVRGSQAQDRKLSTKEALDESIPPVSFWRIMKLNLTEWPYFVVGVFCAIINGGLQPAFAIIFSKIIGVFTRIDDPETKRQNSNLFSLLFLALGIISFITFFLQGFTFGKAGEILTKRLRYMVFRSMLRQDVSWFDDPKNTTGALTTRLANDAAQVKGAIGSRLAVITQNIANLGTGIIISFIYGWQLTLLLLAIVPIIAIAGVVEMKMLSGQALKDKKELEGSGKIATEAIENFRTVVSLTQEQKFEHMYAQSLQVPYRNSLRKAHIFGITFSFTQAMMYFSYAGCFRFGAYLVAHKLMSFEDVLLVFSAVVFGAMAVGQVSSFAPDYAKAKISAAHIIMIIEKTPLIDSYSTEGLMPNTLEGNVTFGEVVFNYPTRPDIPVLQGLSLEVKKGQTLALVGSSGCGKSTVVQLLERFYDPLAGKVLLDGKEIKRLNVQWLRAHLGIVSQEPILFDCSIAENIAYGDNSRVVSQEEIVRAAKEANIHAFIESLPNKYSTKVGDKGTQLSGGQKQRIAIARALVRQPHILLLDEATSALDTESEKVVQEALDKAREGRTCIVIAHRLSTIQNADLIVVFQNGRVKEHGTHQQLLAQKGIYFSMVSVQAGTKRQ
Experimental: P-gp ATPase activity was measured using P-gp-Glo™ assay systems kit according to the manufacturer’s instructions, the method detail of which was also described in our previous study [29]. […] After 40 min, ATP detection reagent was added, respectively. The unconsumed ATP detection reagent reacted with luciferase at room temperature for 20 min and the chemiluminescence intensity was detected. The average relative light units (RLU) was calculated as follows:RLUNa3VO4 − RLUNT = ΔRLUbasal(1) RLUNa3VO4 − RLUTC = ΔRLUTC(2)
ΔRLUbasal, the decrease in luminescence of the untreated group (RLUNT) compared to the Na3VO4 group (RLUNa3VO4), represents the basal P-gp ATPase activity. ΔRLUTC, the decrease in luminescence of the test compound-treated group (RLUTC) compared to the Na3VO4 group (RLUNa3VO4), indicates the P-gp ATPase activity in the presence of the test compound. The decrease in luminescence reflect ATP consumption by P-gp and is proportional to P-gp activity.
A short description of data set [6]: Transport of VCR across MDCK-MDR1 cell monolayer (A→B). In kind it is in vitro ADME, canine. The following applies: dog, MDCK-MDR1, pH 7.4, VCR 264.46 μmol/L alone, 37 °C, n = 3.
Experimental: Briefly, cell monolayers were pre-incubated in Hank’s buffered salt solution (HBSS, pH 7.4) for 30 min at 37 °C. Trans-epithelial electric resistance (TEER) values of the MDCK-MDR1 cell monolayer ranged from 500 to 800 Ω·cm^2. All drugs were dissolved in DMSO and diluted in HBSS. The final concentration of DMSO is less than 1%. […] After treatments, cells were incubated at 37 °C for 2 h. After 2 h, 500 µL aliquots were taken from the basal side, mixed with 500 µL methanol, vortexed 2 min and then centrifuged for 10 min at 16,000 rpm. The supernatants were collected to measure the concentrations of compounds by high performance liquid-chromatography/mass spectroscopy (LC-MS/MS). Apparent permeability (Papp) values are calculated from the relationship: Papp=dQ/dt/A×C0 where dQ/dt is the cumulative transport rate of the compound on the receiving side (µg/s), A is the surface area of the cell monolayer (cm^2), and C0 is the initial concentration in the donor compartment (µg/mL).

Where a name gives a salt, the structure may show the parent alone. Read-outs that look alike come from different tables or passages of the source.

In data set [1], `CC(=O)O[C@@]12CO[C@@H]1C[C@H](O)[C@@]1(C)C(=O)[C@H](O)C3=C(C)[C@@H](OC(=O)[C@H](O)[C@@H](NC(=O)OC(C)(C)C)c4ccccc4)C[C@@](O)([C@@H](OC(=O)c4ccccc4)[C@H]21)C3(C)C` [DTX, Docetaxel] gave an AUC(0-inf) of 306 ± 21.1 ng·h/mL, an area under the curve AUC(0-t) of 276 ± 19.1 ng·h/mL, a maximum concentration (Cmax) of 118 ± 10.9 ng/mL and an MRT inf of 4.29 ± 0.98 h. In data set [1], this compound had an MRT last of 2.96 ± 0.22 h and a half-life of 4.13 ± 1.08 h.

As for `CC1(C)O[C@H]1COc1c2ccoc2cc2oc(=O)ccc12` [OPD, Oxypeucedanin], in data set [2] (OPD 3.82, 19.08, 76.30 μmol/L), the “cytotoxicity (viability of MDCK-MDR1 cells, MTT assay)” value was “no obvious cytotoxicity”. Also, the P-gp protein expression result in data set [3] is “obvious reduction”. Moreover, the “mRNA expression of MDR1” value in data set [4] is “significantly downregulated”. Moreover, the results for the “increase in P-gp ATPase activity” value in data set [5] (OPD 3.5 μmol/L), in data set [5] (OPD 17.5 μmol/L) and in data set [5] (OPD 70 μmol/L) were 0.55 fold, 0.31 fold and 0.50 fold, respectively.

Consider `CC[C@]1(O)C[C@H]2CN(CCc3c([nH]c4ccccc34)[C@@](C(=O)OC)(c3cc4c(cc3OC)N(C=O)[C@H]3[C@@](O)(C(=O)OC)[C@H](OC(C)=O)[C@]5(CC)C=CCN6CC[C@]43[C@@H]65)C2)C1` [VCR, Vincristine sulfate], for which the “cytotoxicity (viability of MDCK-MDR1 cells, MTT assay)” value in data set [2] (VCR 264.46 μmol/L) is “no obvious cytotoxicity”. For the same compound, the Papp A→B at 2 h, 264.46 μmol/L in data set [6] turned out to be 0.37 ± 0.04 ×10⁻⁶ cm/s.

As usually defined, the AUC(0-inf) is the area under the concentration-time curve extrapolated to infinity. Higher therefore signals high exposure. As usually defined, the AUC(0-t) is the area under the concentration-time curve up to a stated or last time point. Low values mean low exposure, high ones high exposure. What is called Cmax is the highest concentration seen after dosing. Broadly, the MRT inf is the average time that molecules of a dose stay in the body. As usually defined, the MRT last is a mean duration of stay, worked out from the concentration-time curve. As a reminder, the half-life is how long it takes for the measured level to halve. A higher half-life goes with slow loss. A word on the Papp A→B: it is the apparent permeability from the apical to the basolateral side of a cell layer. A low value points to poor permeation.
